The numbers were not newly measured in patent US20240117023A1, “METHOD” (Agency for Science, Technology and Research, priority 2021, published 2024), which cites them from elsewhere.

The subject of this series is RA and OA animal models. The note with it: in vivo; cited from earlier work.

`CN1C(=O)N(C[C@H](C(=O)NO)[C@@H](CC2CCCC2)C(=O)N2CCCCC2)C(=O)C1(C)C` [Trocade]: the “effect in animal models” value is “protective effects against RA and OA”.
